Test results taken from patent US20230002375A1, “HYDROPYRAZINO[1,2-B]ISOQUINOLINE COMPOUNDS FOR THE TREATMENT OF AUTOIMMUNE DISEASE” (Hoffmann-La Roche Inc., priority 2019, published 2023).

Molecular target: T1, human TLR9 (Homo sapiens, UniProt Q9NR96)
T1 sequence (Q9NR96 26-1032): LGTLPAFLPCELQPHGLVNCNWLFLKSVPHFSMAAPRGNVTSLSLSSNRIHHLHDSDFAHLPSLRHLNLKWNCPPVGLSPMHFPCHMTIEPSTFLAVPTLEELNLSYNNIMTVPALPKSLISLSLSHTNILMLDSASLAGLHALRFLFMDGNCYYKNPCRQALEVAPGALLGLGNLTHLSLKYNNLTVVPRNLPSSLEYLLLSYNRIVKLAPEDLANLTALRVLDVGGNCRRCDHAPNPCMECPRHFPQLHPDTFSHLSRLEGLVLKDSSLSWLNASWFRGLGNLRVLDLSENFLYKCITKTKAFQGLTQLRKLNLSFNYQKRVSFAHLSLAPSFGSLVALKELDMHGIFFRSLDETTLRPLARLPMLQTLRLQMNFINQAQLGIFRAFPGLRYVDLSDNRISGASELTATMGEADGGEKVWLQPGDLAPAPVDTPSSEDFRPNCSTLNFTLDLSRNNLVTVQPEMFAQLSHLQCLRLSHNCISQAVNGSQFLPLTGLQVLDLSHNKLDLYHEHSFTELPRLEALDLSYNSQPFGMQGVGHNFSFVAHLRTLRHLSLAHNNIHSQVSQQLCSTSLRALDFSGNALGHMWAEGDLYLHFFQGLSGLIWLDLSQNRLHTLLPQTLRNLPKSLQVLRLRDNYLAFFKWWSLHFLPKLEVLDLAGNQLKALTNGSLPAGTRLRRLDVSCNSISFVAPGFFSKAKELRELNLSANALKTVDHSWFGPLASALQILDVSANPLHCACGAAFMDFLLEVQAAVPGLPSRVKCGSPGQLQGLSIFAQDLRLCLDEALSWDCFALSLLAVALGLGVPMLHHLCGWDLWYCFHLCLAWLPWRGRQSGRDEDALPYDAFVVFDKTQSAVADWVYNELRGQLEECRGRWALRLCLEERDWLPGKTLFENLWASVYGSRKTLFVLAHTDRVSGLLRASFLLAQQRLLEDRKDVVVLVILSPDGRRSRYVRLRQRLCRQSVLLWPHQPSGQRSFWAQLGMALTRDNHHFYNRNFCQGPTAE
Test: HEK293-Blue-hTLR-9 cells assay (SEAP reporter, ODN2006 stimulation)
Format: cell-based
Details: HEK293-Blue-hTLR9 cells, ODN2006, 20 hrs incubation; read-out: HEK/hTLR9 IC50
Experimental: The following tests were carried out in order to determine the activity of the compounds of formula (I), (Ia) or (Ib) in HEK293-Blue-hTLR-7/8/9 cells assay.
HEK293-Blue-hTLR-9 Cells Assay:
A stable HEK293-Blue-hTLR-9 cell line was purchased from InvivoGen (Cat.#: hkb-htlr9, San Diego, Calif., USA). These cells were originally designed for studying the stimulation of human TLR9 by monitoring the activation of NF-κB. A SEAP (secreted embryonic alkaline phosphatase) reporter gene was placed under the control of the IFN-β minimal promoter fused to five NF-κB and AP-1-binding sites. The SEAP was induced by activating NF-κB and AP-1 via stimulating HEK-Blue hTLR9 cells with TLR9 ligands. Therefore the reporter expression was declined by TLR9 antagonist under the stimulation of a ligand, such as ODN2006 (Cat.#: tlrl-2006-1, Invivogen, San Diego, Calif., USA), for incubation of 20 hrs. The cell culture supernatant SEAP reporter activity was determined using QUANTI-Blue™ kit (Cat.#: rep-qb1, Invivogen, San Diego, Calif., USA) at a wavelength of 640 nm, a detection medium that turns purple or blue in the presence of alkaline phosphatase.
HEK293-Blue-hTLR9 cells were incubated at a density of 250,000-450,000 cells/mL in a volume of 170 μL in a 96-well plate in Dulbecco's Modified Eagle's medium (DMEM) containing 4.5 g/L glucose, 50 U/mL penicillin, […], 2 mM L-glutamine, 10% (v/v) heat-inactivated fetal bovine serum with addition of 20 μL test compound in a serial dilution in the presence of final DMSO at 1% and 10 μL of 20 uM ODN2006 in above DMEM, perform incubation under 37° C. in a CO2 incubator for 20 hrs. Then 20 μL of the supernatant from each well was incubated with 180 μL Quanti-blue substrate solution at 37° C. for 2 h and the absorbance was read at 620-655 nm using a spectrophotometer. The signaling pathway that TLR9 activation leads to downstream NF-κB activation has been widely accepted, and therefore similar reporter assay was modified for evaluating TLR9 antagonist.

Structure (SMILES)	IC50 [nM]
C[C@@H]1CN(c2ccc(C#N)c3ncccc23)C[C@@H]2Cc3cc(N4CCN(C(=O)[C@]5(C)CCCN5)CC4)ccc3CN21 [Example 14, 5-[(4R,11aS)-4-methyl-9-[4-[(2S)-2-methylpyrrolidine-2-carbonyl]piperazin-1-yl]-1,3,4,6,11,11a-hexahydropyrazino[1,2-b]isoquinolin-2-yl]quinoline-8-carbonitrile]	254
C[C@@H]1CN(c2ccc(C#N)c3ncccc23)C[C@@H]2Cc3cc(N4C[C@H]5CNCCN5C4=O)ccc3CN21 (single isomer, unassigned) [Example 17B]	106
C[C@@H]1CN(c2ccc(C#N)c3ncccc23)C[C@@H]2Cc3cc(N4CC5CCNCC5C4=O)ccc3CN21 (stereo partly drawn) [Example 18, 5-[(4R,11aS)-4-methyl-9-(3-oxo-3a,4,5,6,7,7a-hexahydro-1H-pyrrolo[3,4-c]pyridin-2-yl)-1,3,4,6,11,11a-hexahydropyrazino[1,2-b]isoquinolin-2-yl]quinoline-8-carbonitrile]	64.6
C[C@@H]1CN(c2ccc(C#N)c3ncccc23)C[C@@H]2Cc3cc(OCCN(C)C)ccc3CN21 [Example 11, 5-[(4R,11aS)-9-[2-(dimethylamino)ethoxy]-4-methyl-1,3,4,6,11,11a-hexahydropyrazino[1,2-b]isoquinolin-2-yl]quinoline-8-carbonitrile]	81
C[C@@H]1CN(c2ccc(C#N)c3ncccc23)C[C@@H]2Cc3ccc(OCCN(C)C)cc3CN21 [Example 5, 5-[(4R,11aS)-8-[2-(dimethylamino)ethoxy]-4-methyl-1,3,4,6,11,11a-hexahydropyrazino[1,2-b]isoquinolin-2-yl]quinoline-8-carbonitrile]	96.3
CO[C@H]1CN(c2ccc3c(c2)C[C@H]2CN(c4ccc(C#N)c5ncccc45)C[C@@H](C)N2C3)C[C@H]1N [Example 9, 5-[(4R,11aS)-9-[(3R,4S)-3-amino-4-methoxy-pyrrolidin-1-yl]-4-methyl-1,3,4,6,11,11a-hexahydropyrazino[1,2-b]isoquinolin-2-yl]quinoline-8-carbonitrile]	139
C[C@@H]1CN(c2ccc(C#N)c3ncccc23)C[C@@H]2Cc3cc(N4CCN(C(=O)C(C)(C)N)CC4)ccc3CN21 [Example 13, 5-[(4R,11aS)-9-[4-(2-amino-2-methyl-propanoyl)piperazin-1-yl]-4-methyl-1,3,4,6,11,11a-hexahydropyrazino[1,2-b]isoquinolin-2-yl]quinoline-8-carbonitrile]	85.6
CO[C@H]1CNC[C@H]1Nc1ccc2c(c1)C[C@H]1CN(c3ccc(C#N)c4ncccc34)C[C@@H](C)N1C2 [Example 7, 5-[(4R,11aS)-9-[[(3R,4S)-4-methoxypyrrolidin-3-yl]amino]-4-methyl-1,3,4,6,11,11a-hexahydropyrazino[1,2-b]isoquinolin-2-yl]quinoline-8-carbonitrile]	109
C[C@@H]1CN(c2ccc(C#N)c3ncccc23)C[C@@H]2Cc3cc(N4C[C@@H]5C[C@H]4CN5C(=O)C(C)(C)N)ccc3CN21 [Example 15, 5-[(4R,11aS)-9-[(1S,4S)-5-(2-amino-2-methyl-propanoyl)-2,5-diazabicyclo[2.2.1]heptan-2-yl]-4-methyl-1,3,4,6,11,11a-hexahydropyrazino[1,2-b]isoquinolin-2-yl]quinoline-8-carbonitrile]	125
C[C@@H]1CN(c2ccc(C#N)c3ncccc23)C[C@@H]2Cc3cc(N4C[C@@H]5CNCCN5C4=O)ccc3CN21 (single isomer, unassigned) [Example 17A]	107
C[C@@H]1CN(c2ccc(C#N)c3ncccc23)C[C@@H]2Cc3cc(N4CC5NCCOC5C4)ccc3CN21 (stereo in doubt) [Example 10, 5-[(4R,11aS)-9-[(4aS,7aS)-3,4,4a,5,7,7a-hexahydro-2H-pyrrolo[3,4-b][1,4]oxazin-6-yl]-4-methyl-1,3,4,6,11,11a-hexahydropyrazino[1,2-b]isoquinolin-2-yl]quinoline-8-carbonitrile]	78.2

The next lines start with the values.

IC50 [nM]	Structure (SMILES)
125	C[C@@H]1CN(c2ccc(C#N)c3ncccc23)C[C@@H]2Cc3cc(N4CC(N)CC4=O)ccc3CN21 (stereo partly drawn) [Example 16, 5-[(4R,11aS)-9-(4-amino-2-oxo-pyrrolidin-1-yl)-4-methyl-1,3,4,6,11,11a-hexahydropyrazino[1,2-b]isoquinolin-2-yl]quinoline-8-carbonitrile]
85.3	C[C@@H]1CN(c2ccc(C#N)c3ncccc23)C[C@@H]2Cc3cc(N4C[C@@H](F)[C@@H](N)C4)ccc3CN21 [Example 8, 5-[(4R,11aS)-9-[(3S,4R)-3-amino-4-fluoro-pyrrolidin-1-yl]-4-methyl-1,3,4,6,11,11a-hexahydropyrazino[1,2-b]isoquinolin-2-yl]quinoline-8-carbonitrile]
116	C[C@@H]1CN(c2ccc(C#N)c3ncccc23)C[C@@H]2Cc3cc(OC[C@@H]4CCN4)ccc3CN21 [Example 12, 5-[(4R,11aS)-9-[[(2S)-azetidin-2-yl]methoxy]-4-methyl-1,3,4,6,11,11a-hexahydropyrazino[1,2-b]isoquinolin-2-yl]quinoline-8-carbonitrile]
44.5	C[C@@H]1CN(c2ccc(C#N)c3ncccc23)C[C@@H]2Cc3cc(N4CC5CNCCC5C4=O)ccc3CN21 (stereo partly drawn) [Example 19, 5-[(4R,11aS)-4-methyl-9-(1-oxo-3a,4,5,6,7,7a-hexahydro-3H-pyrrolo[3,4-c]pyridin-2-yl)-1,3,4,6,11,11a-hexahydropyrazino[1,2-b]isoquinolin-2-yl]quinoline-8-carbonitrile]
44.5	C[C@@H]1CN(c2ccc(C#N)c3ncccc23)C[C@@H]2Cc3ccc(NCCN4CC[C@H](O)C4)cc3CN21 [Example 2, 5-[(4R,11aS)-8-[2-[(3S)-3-hydroxypyrrolidin-1-yl]ethylamino]-4-methyl-1,3,4,6,11,11a-hexahydropyrazino[1,2-b]isoquinolin-2-yl]quinoline-8-carbonitrile]
64.6	C[C@@H]1CN(c2ccc(C#N)c3ncccc23)C[C@@H]2Cc3ccc(N4CCOCC(N)C4)cc3CN21 (stereo partly drawn) [Example 1, 5-[(4R,11aS)-8-(6-amino-1,4-oxazepan-4-yl)-4-methyl-1,3,4,6,11,11a-hexahydropyrazino[1,2-b]isoquinolin-2-yl]quinoline-8-carbonitrile]
106	C[C@@H]1CN(c2ccc(C#N)c3ncccc23)C[C@@H]2Cc3cc(N[C@@H]4CNC[C@@H]4F)ccc3CN21 [Example 6, 5-[(4R,11aS)-4-methyl-9-[[(3R,4S)-4-fluoropyrrolidin-3-yl]amino]-1,3,4,6,11,11a-hexahydropyrazino[1,2-b]isoquinolin-2-yl]quinoline-8-carbonitrile]
